The inhibition is how much of the control response was suppressed. Higher therefore signals strong suppression. Broadly, the IC50 is the concentration that gives 50% inhibition. A low value points to higher potency.

Molecules are shown by their SMILES.

Assay [1] has as its target T1, LIM domain kinase 1 (Homo sapiens, UniProt P53667). Nature of the assay: Inhibition of LIMK1 (unknown origin) using cofilin-2 as substrate at 30 uM after 60 mins by Kinase-Glo assay relative to control. Background: Kinase-Glo measures the ATP left after a reaction by luminescence.
Target sequence in this assay (P53667 whole entry, looked up, the tested form may be a part): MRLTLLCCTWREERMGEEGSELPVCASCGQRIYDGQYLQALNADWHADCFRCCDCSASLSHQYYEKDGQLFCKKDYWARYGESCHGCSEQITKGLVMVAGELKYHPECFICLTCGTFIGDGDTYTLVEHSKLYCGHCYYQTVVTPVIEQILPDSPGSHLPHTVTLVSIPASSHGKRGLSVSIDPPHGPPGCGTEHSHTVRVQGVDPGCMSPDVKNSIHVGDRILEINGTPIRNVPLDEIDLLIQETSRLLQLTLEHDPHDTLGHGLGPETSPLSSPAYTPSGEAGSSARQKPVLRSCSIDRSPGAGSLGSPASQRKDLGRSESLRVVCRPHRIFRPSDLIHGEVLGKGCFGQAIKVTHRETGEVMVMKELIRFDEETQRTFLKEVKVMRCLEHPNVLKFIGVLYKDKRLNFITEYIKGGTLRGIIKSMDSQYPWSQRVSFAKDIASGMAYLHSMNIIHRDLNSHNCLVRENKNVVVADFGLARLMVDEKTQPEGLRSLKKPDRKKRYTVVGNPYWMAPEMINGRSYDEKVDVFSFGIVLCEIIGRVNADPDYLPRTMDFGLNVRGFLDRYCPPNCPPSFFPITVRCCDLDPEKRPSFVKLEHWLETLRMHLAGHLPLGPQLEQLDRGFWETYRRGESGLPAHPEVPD
Assay [2] has as its target T1, LIM domain kinase 1. Nature of the assay: Inhibition of LIMK1 (unknown origin) using cofilin-2 as substrate after 60 mins by Kinase-Glo assay.
Target sequence in this assay (P53667 whole entry, the tested form may be a part): as the sequence (P53667 whole entry, looked up, the tested form may be a part) above

`NC(=O)c1sc2ncccc2c1N` displayed an inhibition against LIM domain kinase 1 [1] of 40%.

The compound `NC(=O)c1sc2nc(Cc3ccccc3)cc(C(F)(F)F)c2c1N` registered an IC50 at LIM domain kinase 1 [2] of 30 µM. This lies in the double-digit micromolar range.

At LIM domain kinase 1 [2], `Nc1ncnc2c1sc1c(-c3ccccc3)cccc12` came in with an IC50 of 6.1 µM. This IC50 is about 4.9-fold lower than that of the compound before.

The compound `Nc1c(C(=O)O)sc2ccccc12` came in with an IC50 against LIM domain kinase 1 [2] greater than 100 µM.

Take `Nc1c(C(=O)N2CCOCC2)sc2ncccc12`: at LIM domain kinase 1 [1], the inhibition turned out to be 0%.

Turning to `Nc1ncnc2c1sc1cccnc12`, at LIM domain kinase 1 [2], inhibition was half-maximal at 43 µM (IC50).

The compound `Cc1ccc(-c2cc(C(F)(F)F)c3c(N)c(C(N)=O)sc3n2)o1` yielded an IC50 against LIM domain kinase 1 [2] of 41 µM.

As to `CNc1c(C(N)=O)sc2ccccc12`, the IC50 at LIM domain kinase 1 [2] came out at 34 µM.

On to `Nc1c(C(=O)NC2CCCCC2)sc2ncccc12`, for which the inhibition on LIM domain kinase 1 [1] came to 2%.

Compound `NC(=O)c1sc2nc(-c3ccccc3)cc(-c3ccco3)c2c1N` registered an IC50 against LIM domain kinase 1 [2] of 2 µM. In other words, the single-digit micromolar range.

The compound `Nc1ncnc2c1sc1nccnc12` yielded an IC50 on LIM domain kinase 1 [2] greater than 100 µM.

Consider `NC(=O)c1sc2ccccc2c1O`, for which the IC50 on LIM domain kinase 1 [2] is greater than 100 µM.

At LIM domain kinase 1 [2], `Nc1nc(-c2ccccc2)nc2c1sc1ncccc12` yielded an IC50 greater than 50 µM.

At LIM domain kinase 1 [2], `Nc1ncnc2c1oc1ccccc12` came in with an IC50 of 15 µM. That is a double-digit micromolar value.

For `CN(C)c1ccnc2sc(C(N)=O)c(N)c12`, on LIM domain kinase 1 [1], the inhibition was 67%.

`NC(=O)c1sc2nc(-c3cccs3)cc(C(F)(F)F)c2c1N`: inhibition on LIM domain kinase 1 [2] was half-maximal at 1.6 µM (IC50). This counts as single-digit micromolar.

At LIM domain kinase 1 [1], `NC(=O)c1sc2nc3c(c(-c4cccs4)c2c1N)CCC3` yielded an inhibition of 50%.

On LIM domain kinase 1 [2], `Cc1ccnc2sc(C(N)=O)c(N)c12` returned an IC50 of 11 µM. Moreover, the inhibition on LIM domain kinase 1 [1] is 79%.

Compound `Cc1cc(-c2ccc(Cl)cc2)c2c(N)c(C(N)=O)sc2n1` displayed an IC50 at LIM domain kinase 1 [2] of 37 µM.

In turn, `Nc1ncnc2c1sc1nc(-c3ccccc3)ccc12` gave an IC50 on LIM domain kinase 1 [2] of 0.7 µM. This IC50 is about 53-fold lower than that of the compound before.

`CCOC(=O)c1sc2ccccc2c1N`: at LIM domain kinase 1 [2], the IC50 was greater than 100 µM.

Turning to `Nc1c(C(=O)Nc2ccccc2)sc2nccc(Nc3ccccc3)c12`, the inhibition against LIM domain kinase 1 [1] is 0%.

Consider `Nc1ncnc2c1[nH]c1ccccc12`, for which, on LIM domain kinase 1 [2], the IC50 was found to be 4 µM.

Consider `NC(=O)c1sc2nc(-c3ccccc3)ccc2c1N`, for which the IC50 against LIM domain kinase 1 [2] stood at 3 µM.

As for `NC(=O)c1sc2cccnc2c1N`, it took 92 µM to reach half-maximal inhibition at LIM domain kinase 1 [2] (IC50).

`NC(=O)c1sc2nc(-c3ccccc3)c3c(c2c1N)CCCC3`: the IC50 on LIM domain kinase 1 [2] was 2.8 µM.

As to `COc1ccc(-c2cc(-c3ccccc3)nc3sc(C(N)=O)c(N)c23)cc1`, at LIM domain kinase 1 [2], the IC50 worked out at 44 µM.

On to `NC(=O)c1sc2ncc3c(c2c1N)CCCC3`, for which, at LIM domain kinase 1 [1], the inhibition is 16%.

For `Nc1c(C(=O)O)sc2ncccc12`, at LIM domain kinase 1 [2], the IC50 was greater than 100 µM.

On to `Nc1ncnc2c1sc1ccc(-c3ccccc3)cc12`, for which the IC50 on LIM domain kinase 1 [2] came to 5.7 µM.

In the case of `NC(=O)c1oc2ccccc2c1N`, the IC50 against LIM domain kinase 1 [2] is greater than 100 µM.

Take `CNC(=O)c1sc2ncccc2c1N`: the IC50 against LIM domain kinase 1 [2] is greater than 100 µM.

Compound `NC(=O)c1sc2nc(-c3cccnc3)ccc2c1N` came in with an IC50 against LIM domain kinase 1 [2] of 7.1 µM.

Consider `NC(=O)c1sc2nccc(Nc3ccccc3)c2c1N`, for which the inhibition against LIM domain kinase 1 [1] came out at 98%.

In turn, `Cc1ccc2c(N)c(C(N)=O)sc2n1` displayed an IC50 on LIM domain kinase 1 [2] of 56 µM.

At LIM domain kinase 1 [2], `Cc1nc(N)c2sc3ncccc3c2n1` displayed an IC50 of 43 µM. The IC50 values of the last two compounds are within 1.5-fold of each other.

On to `Nc1c(C(=O)Nc2ccccc2)sc2ncccc12`, for which the inhibition at LIM domain kinase 1 [1] stood at 15%.

In the case of `CN(C)C(=O)c1sc2ncccc2c1N`, at LIM domain kinase 1 [2], the IC50 was greater than 100 µM.

`Cc1cc(C)c2c(N)c(C(N)=O)sc2n1`: the IC50 at LIM domain kinase 1 [2] was determined as 9 µM. This lies in the single-digit micromolar range.

On LIM domain kinase 1 [2], `NC(=O)c1sc2nc(-c3ccc4c(c3)OCCO4)cc(C(F)(F)F)c2c1N` yielded an IC50 of 1.3 µM.

As for `NC(=O)c1cc2ccccc2s1`, at LIM domain kinase 1 [2], the IC50 is greater than 100 µM.

With `NNC(=O)c1sc2ncccc2c1N`, the IC50 at LIM domain kinase 1 [2] is greater than 100 µM.

`Nc1ncnc2c1sc1cccc(-c3ccccc3)c12`: on LIM domain kinase 1 [2], 5.5 µM corresponded to half-maximal inhibition (IC50).

The record behind these values is ChEMBL document CHEMBL3217427, “Identification of 3-aminothieno[2,3-b]pyridine-2-carboxamides and 4-aminobenzothieno[3,2-d]pyrimidines as LIMK1 inhibitors” (Medchemcomm, 2011).
